Assay results from ChEMBL document CHEMBL1148989, “Meroterpenoid MAPKAP (MK2) inhibitors isolated from the indonesian marine sponge Acanthodendrilla sp” (J Nat Prod, 2004).

Target: MAP kinase-activated protein kinase 2 (Homo sapiens, UniProt P49137)
Test: Inhibition of MK2

Chain of MAP kinase-activated protein kinase 2 (P49137 whole entry): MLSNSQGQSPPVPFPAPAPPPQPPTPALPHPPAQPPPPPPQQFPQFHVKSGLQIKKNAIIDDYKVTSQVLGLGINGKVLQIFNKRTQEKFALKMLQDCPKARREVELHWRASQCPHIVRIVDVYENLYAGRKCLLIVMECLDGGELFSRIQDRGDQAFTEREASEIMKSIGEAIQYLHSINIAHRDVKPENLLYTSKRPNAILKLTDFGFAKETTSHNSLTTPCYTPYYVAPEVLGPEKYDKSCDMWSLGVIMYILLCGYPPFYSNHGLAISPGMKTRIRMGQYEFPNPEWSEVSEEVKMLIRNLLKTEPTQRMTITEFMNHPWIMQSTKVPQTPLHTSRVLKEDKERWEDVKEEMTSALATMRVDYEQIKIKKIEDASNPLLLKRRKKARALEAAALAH

## CC1=CC[C@H]2[C@@](C)(CC[C@H]3C(C)(C)CCC[C@]23C)[C@@H]1Cc1cc(C(=O)O)ccc1O
  IC50: 20 µM

## CC1=C(CC/C(C)=C/Cc2cc(C(=O)O)ccc2O)[C@@]2(C)CCCC(C)(C)[C@@H]2CC1
  IC50: 9.6 µM
